Assay results: patent US7179920B2, “3-thia-4-arylquinolin-2-one derivatives” (Bristol-Myers Squibb Company, priority 2003, dated 2007)

Key:
[1] = test system: cloned mammalian (mSlo or hSlo) BK (Maxi-K) channel; test: Assay for BK channel openers: two-electrode voltage clamp of BK-mediated outward current in Xenopus oocytes; type: cell-based; details: voltage step to +140 mV
Source text: The experimental media (modified Barth's solution) consisted of millimolar (“mM”): NaCl (88), NaHCO3 (2.4), KCl (1.0), HEPES (10), MgSO4 (0.82), Ca(NO3)2 (0.33), CaCl2 (0.41); pH 7.5.

[2] = test system: rabbit corpus cavernosum tissue; test: Rabbit corpus cavernosum strips: relaxation of phenylephrine-induced force; details: Oryctolagus cuniculus; inhibition of phenylephrine (3 μM)-induced force as compared to vehicle control; read-out: % Inhibition of force (RCC strips)
Protocol: The ability of the compounds of the invention to relax rabbit corpus cavernosum tissue as a model for the treatment of erectile dysfunction is described as follows. New Zealand white rabbits (3.4–3.7 kg) were euthanized by sodium pentobarbital (100 mg/kg) overdose. The penis from each animal was rapidly removed and immersed in a cold oxygenated modified Krebs Henseleit bicarbonate buffer. The penis' outer tunica was removed and the corpus cavernosum smooth muscle obtained and cut into strips approximately 3–5 mm long. The strips were suspended in tissue baths containing physiological salt solution (see above), and allowed to equilibrate for at least one hour under resting tension of 1.0 gram. Isometric force was measured as described above. Tissue strips were stimulated with the α-agonist phenylephrine (3 μM) and allowed to reach a steady level of force prior to the addition of test compounds. The results are expressed as the percentage inhibition of phenylephrine-induced force as compared to vehicle control.

[3] = test system: rat small intestine tissue; test: Rat small intestine (ileum) strips: inhibition of nifedipine-sensitive force; details: integral of nifedipine-sensitive force, 30 min post-compound
Source text: The ability of the compounds of the invention to relax rat small intestine tissue as a model for the treatment of irritable bowel syndrome is described as follows. Male rats (Harlan, Sprague Dawley, 250–350 g) were sacrificed by decapitation. A portion of small intestine (ileum) was removed and the attached connective tissues and intestinal contents removed. The ileum was cut into segments of ≦1 cm in length. The segments were mounted longitudinally between fixed hooks in organ baths containing warm (37° C.) physiological salt solution (composition in mM: NaCl 118.4, KCl 4.7, KH2PO4 1.2, MgSO4 1.2, CaCl2 1.8, Glucose 10.1, NaHCO3 25; gassed with 95% O2/5% CO2, pH 7.4). A stable tension of ˜1.5 g was maintained in the tissue segments during the equilibration period of 45 minutes. Changes in muscle tension were measured with isometric force transducers (Grass, FT-03C) and recorded using AcqKnowledge data acquisition system (AcqKnowledge for MP100WS, Biopac Systems Inc., Goleta, Calif.). Compound or vehicle was added in the baths for 30 minutes. “Zero” active force was established at the end of the experiment using nifedipine (20 μM). The effects of compounds or vehicle on force was determined by measuring the integral of nifedipine-sensitive force (including resting tone and spontaneous contractions) pre- and 30 min post-compound (or vehicle) addition. Results are expressed as the percentage inhibition of force. DMSO vehicle inhibited force (integral) by −0.6±3.0% (n=25).

[4] = at 20 μM, percent increase over BK current in controls
[5] = at 1 μM, percent increase over BK current in controls

SMILES | % MaxiK opening [1, 4] | melting point | inhibition [2] | other results
N#CCCSc1c(-c2cc(Cl)ccc2O)c2cc(C(F)(F)F)ccc2[nH]c1=O [Example 11, 3-[4-(5-Chloro-2-hydroxyphenyl)-2-oxo-6-trifluoromethyl-1,2-dihydro-quinolin-3-ylsulfanyl]propionitrile] | 189% | 140 °C |  | 
COc1ccc(Cl)cc1-c1c(SCCO)c(=O)[nH]c2ccc(C(F)(F)F)cc12 [Example 16, 4-(5-Chloro-2-methoxyphenyl)-3-(2-hydroxyethylsulfanyl)-6-trifluoromethyl-1H-quinolin-2-one] | 149% | 98 to 100 °C |  | 
N#CCCCSc1c(-c2cc(Cl)ccc2O)c2cc(C(F)(F)F)ccc2[nH]c1=O [Example 13, 4-[4-(5-Chloro-2-hydroxyphenyl)-2-oxo-6-trifluoromethyl-1,2-dihydro-quinolin-3-ylsulfanyl]butyronitrile] | 198% | 217 °C |  | 
O=c1[nH]c2ccc(C(F)(F)F)cc2c(-c2cc(Cl)ccc2O)c1SCCCO [Example 14, 4-(5-Chloro-2-hydroxyphenyl)-3-(3-hydroxypropylsulfanyl)-6-trifluoromethyl-1H-quinolin-2-one] | 242% | 178 to 180 °C | 23% | 
COc1ccc(Cl)cc1-c1c(SCC(O)CO)c(=O)[nH]c2ccc(C(F)(F)F)cc12 (centres unmarked) [Example 20, 4-(5-Chloro-2-methoxyphenyl)-3-(2,3-dihydroxypropylsulfanyl)-6-trifluoromethyl-1H-quinolin-2-one] | 178% | 110 to 114 °C |  | 
CNC(=O)NCCSc1c(-c2cc(Cl)ccc2O)c2cc(C(F)(F)F)ccc2[nH]c1=O [Example 6, 1-{2-[4-(5-Chloro-2-hydroxy-phenyl)-2-oxo-6-trifluoromethyl-1,2-dihydro-quinolin-3-ylsulfanyl]-ethyl}-3-methyl-urea] | 176% |  |  | 
O=c1[nH]c2ccc(C(F)(F)F)cc2c(-c2cc(Cl)ccc2O)c1SCCO [Example 10, 4-(5-Chloro-2-hydroxyphenyl)-3-(2-hydroxyethylsulfanyl)-6-trifluoromethyl-1H-quinolin-2-one] | 348% | 278 to 279 °C | 43% | 
COc1ccc(Cl)cc1-c1c(S/C=C/CO)c(=O)[nH]c2ccc(C(F)(F)F)cc12 [Example 21] |  | 148 to 150 °C |  | % MaxiK opening [1, 5]: 135^⋄ %
COc1ccc(Cl)cc1-c1c(SCCCO)c(=O)[nH]c2ccc(C(F)(F)F)cc12 [Example 15, 4-(5-Chloro-2-methoxyphenyl)-3-(3-hydroxypropylsulfanyl)-6-trifluoromethyl-1H-quinolin-2-one] | 140% | 211 °C |  | 
CCNC(=O)NCCSc1c(-c2cc(Cl)ccc2OC)c2cc(C(F)(F)F)ccc2[nH]c1=O [Example 3, 1-{2-[4-(5-Chloro-2-methoxy-phenyl)-2-oxo-6-trifluoromethyl-1,2-dihydro-quinolin-3-ylsulfanyl]-ethyl}-3-ethyl-urea] | 123% |  |  | % Inhibition of force (RSI strips) [3]: 17b %
COCCSc1c(-c2cc(Cl)ccc2O)c2cc(C(F)(F)F)ccc2[nH]c1=O [Example 12, 4-(5-Chloro-2-hydroxyphenyl)-3-(2-methoxyethylsulfanyl)-6-trifluoromethyl-1H-quinolin-2-one] |  |  |  | % MaxiK opening [1, 5]: 208^⋄ %
O=c1[nH]c2ccc(C(F)(F)F)cc2c(-c2cc(Cl)ccc2O)c1SC[C@@H](O)CO [Example 18, (S)-4-(5-Chloro-2-hydroxyphenyl)-3-(2,3-dihydroxypropylsulfanyl)-6-trifluoromethyl-1H-quinolin-2-one] | 223% |  | 45% | 
COc1ccc(Cl)cc1-c1c(S)c(=O)[nH]c2ccc(C(F)(F)F)cc12 [Example 9, 4-(5-Chloro-2-methoxyphenyl)-3-mercapto-6-trifluoromethyl-1H-quinolin-2-one] |  | 239 to 241 °C |  | % MaxiK opening [1, 5]: 149^⋄ %
O=c1[nH]c2ccc(C(F)(F)F)cc2c(-c2cc(Cl)ccc2O)c1SCC(O)CO (racemic) [Example 17, (±)-4-(5-Chloro-2-hydroxyphenyl)-3-(2,3-dihydroxypropylsulfanyl)-6-trifluoromethyl-1H-quinolin-2-one] | 246% | 178 to 180 °C | 31% | % Inhibition of force (RSI strips) [3]: 6%
NC(=O)NCCSc1c(-c2cc(Cl)ccc2O)c2cc(C(F)(F)F)ccc2[nH]c1=O [Example 5, 1-{2-[4-(5-Chloro-2-hydroxy-phenyl)-2-oxo-6-trifluoromethyl-1,2-dihydro-quinolin-3-ylsulfanyl]-ethyl}urea] | 165% |  | 65% | % Inhibition of force (RSI strips) [3]: 21%
COc1ccc(Cl)cc1-c1c(SCC(=O)O)c(=O)[nH]c2ccc(C(F)(F)F)cc12 [Example 1] | 155% | 235 °C | 14% | 
O=c1[nH]c2ccc(C(F)(F)F)cc2c(-c2cc(Cl)ccc2O)c1S [Example 8, 4-(5-Chloro-2-hydroxyphenyl)-3-mercapto-6-trifluoromethyl-1H-quinolin-2-one] | 197% |  |  | 
CCNC(=O)NCCSc1c(-c2cc(Cl)ccc2O)c2cc(C(F)(F)F)ccc2[nH]c1=O [Example 7, 1-{2-[4-(5-Chloro-2-hydroxy-phenyl)-2-oxo-6-trifluoromethyl-1,2-dihydro-quinolin-3-ylsulfanyl]-ethyl}-3-ethyl-urea] |  |  |  | % MaxiK opening ([1]; marked ⋄⋄ (concentration footnote not given)): 160^⋄⋄ %
COc1ccc(Cl)cc1-c1c(SCCNC(N)=O)c(=O)[nH]c2ccc(C(F)(F)F)cc12 [Example 4, 1-{2-[4-(5-Chloro-2-methoxy-phenyl)-2-oxo-6-trifluoromethyl-1,2-dihydro-quinolin-3-ylsulfanyl]-ethyl}urea] | 140% |  |  | 
O=c1[nH]c2ccc(C(F)(F)F)cc2c(-c2cc(Cl)ccc2O)c1SC[C@H](O)CO [Example 19, (R)-4-(5-Chloro-2-hydroxyphenyl)-3-(2,3-dihydroxypropylsulfanyl)-6-trifluoromethyl-1H-quinolin-2-one] | 256% |  | 41% | 
